Measurements published in ChEMBL document CHEMBL1201862, “PubChem BioAssay data set” (2004).
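48-hour exposure; five concentrations; linearly interpolated endpoints. At the GI50, growth is halved.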 Calls of active or inactive are those of the source. No stated cut-off is given here; in the data, active = GI50 up to about 1.1 µM and inactive = higher.

How the values were obtained:
Assay in all cases: growth of human tumour cells (NCI), 48 h
[1] = system: SW-620
[2] = system: Hs-578T
[3] = system: U-251
[4] = system: Malme-3M
[5] = system: MDA-MB-435
[6] = system: HCT-15
[7] = system: HCT-116
[8] = system: CAKI-1
[9] = system: SR
[10] = system: SNB-75
[11] = system: SF-295
[12] = system: HCC 2998
[13] = system: OVCAR-3
[14] = system: HL-60
[15] = system: A549
[16] = system: SF-539
[17] = system: SK-MEL-5
[18] = system: MOLT-4
[19] = system: COLO 205

| Compound | GI50 [1] | GI50 [2] | GI50 [3] | GI50 [4] | GI50 [5] | GI50 [6] [µM] | GI50 [7] | GI50 [8] | GI50 [9] | GI50 [10] | GI50 [11] | GI50 [12] | GI50 [13] | GI50 [14] | GI50 [15] | GI50 [16] | GI50 [17] | GI50 [18] | GI50 [19] |
| --- | --- | --- | --- | --- | --- | --- | --- | --- | --- | --- | --- | --- | --- | --- | --- | --- | --- | --- | --- |
| CC(C)C(Cl)CCC(C)(Cl)C(=O)CBr (configuration not stated) | 2 µM (inactive) | 5.73 µM (inactive) | 12.7 µM (inactive) | 9.57 µM (inactive) | 4.18 µM (inactive) | 2.99 | 3.03 µM (inactive) | 6.1 µM (inactive) | 0.845 µM (active) | 16.1 µM (inactive) | 19.3 µM (inactive) | 18.5 µM (inactive) | 6.18 µM (inactive) | 0.425 µM (active) | 20.8 µM (inactive) | 16.9 µM (inactive) | 3.24 µM (inactive) | 0.418 µM (active) | 3.4 µM (inactive) |
| Cc1ccccc1N1C(N)=C(C#N)C(C#N)(C#N)C1c1ccccc1 (configuration not stated) | 16.3 µM (inactive) | 20.1 µM (inactive) | 16.7 µM (inactive) | 16.4 µM (inactive) | 17.7 µM (inactive) | 16.6 | 18 µM (inactive) | 25.9 µM (inactive) | 23.9 µM (inactive) | 26 µM (inactive) | 24.7 µM (inactive) | 16.8 µM (inactive) | 17.2 µM (inactive) | 18.5 µM (inactive) | 26.1 µM (inactive) | 21.2 µM (inactive) | 15.8 µM (inactive) | 15.6 µM (inactive) | 17.9 µM (inactive) |
| Nc1cc2ncnn2c(SCC(=O)N/N=C/C(Br)=C\c2ccccc2)n1 | 16.4 µM (inactive) | 23.1 µM (inactive) | 5.24 µM (inactive) | 12.1 µM (inactive) | 15 µM (inactive) | 18.1 | 21.7 µM (inactive) | 17.9 µM (inactive) | 10.6 µM (inactive) | 20.1 µM (inactive) | 21.8 µM (inactive) | 19.9 µM (inactive) | 18.5 µM (inactive) | 11.9 µM (inactive) | 16.3 µM (inactive) | 16.7 µM (inactive) | 13.4 µM (inactive) | 12.4 µM (inactive) | 19.1 µM (inactive) |
| COc1cc(C(N)=O)cc(NC(=O)/C=C/c2ccccc2)c1OC | > 100 µM (inactive) | > 100 µM (inactive) | > 100 µM (inactive) | > 100 µM (inactive) | > 100 µM (inactive) | > 100 | > 100 µM (inactive) | > 100 µM (inactive) | 74.8 µM (inactive) | 19.7 µM (inactive) | 59.6 µM (inactive) | > 100 µM (inactive) | 97.5 µM (inactive) | > 100 µM (inactive) | > 100 µM (inactive) | 83 µM (inactive) | 64.7 µM (inactive) | > 100 µM (inactive) | > 100 µM (inactive) |
| N=C1/C(=C/c2ccccc2)C(=O)N=C2SC=NN12 | > 100 µM (inactive) | > 100 µM (inactive) | > 100 µM (inactive) | > 100 µM (inactive) | > 100 µM (inactive) | > 100 | > 100 µM (inactive) | > 100 µM (inactive) | > 100 µM (inactive) | > 100 µM (inactive) | > 100 µM (inactive) | > 100 µM (inactive) | > 100 µM (inactive) | > 100 µM (inactive) | > 100 µM (inactive) | 29.7 µM (inactive) | > 100 µM (inactive) | > 100 µM (inactive) | > 100 µM (inactive) |
| O=C(c1ccc2ccccc2c1)N(Cc1cccnc1)C(=S)N(Cc1cccnc1)C(=O)c1ccc2ccccc2c1 | 49.5 µM (inactive) | 49.9 µM (inactive) | 19 µM (inactive) | > 100 µM (inactive) | 34 µM (inactive) | 32.1 | 35.7 µM (inactive) | 22.2 µM (inactive) | 45.2 µM (inactive) | 24.9 µM (inactive) | 34.7 µM (inactive) | 16.5 µM (inactive) | 20.5 µM (inactive) | 40.8 µM (inactive) | 39.3 µM (inactive) | 40 µM (inactive) | 20.6 µM (inactive) | 41.3 µM (inactive) | 29.2 µM (inactive) |
| C[C@@H]1CC(=O)[C@@]2(C)[C@](O)(CCC3O[C@]32C)[C@@]12CC(c1ccoc1)OC2=O (some centres not stated) | 37.4 µM (inactive) | 33.8 µM (inactive) | > 100 µM (inactive) | 50.7 µM (inactive) | 42 µM (inactive) | 37.8 | 34.5 µM (inactive) | 91 µM (inactive) | 30.3 µM (inactive) | 23.7 µM (inactive) | > 100 µM (inactive) | > 100 µM (inactive) | > 100 µM (inactive) | 24.9 µM (inactive) | > 100 µM (inactive) | > 100 µM (inactive) | 44.3 µM (inactive) | 23 µM (inactive) | 65 µM (inactive) |
| Cc1ccc2c(O)cc(-c3cccc4ccccc34)nc2n1 | 0.0203 µM (active) | 0.043 µM (active) | 0.0166 µM (active) | < 0.01 µM (active) | < 0.01 µM (active) | 0.0206 | < 0.0151 µM (active) | 0.353 µM (active) | < 0.01 µM (active) | 0.0116 µM (active) | 0.0193 µM (active) | 0.0294 µM (active) | < 0.0149 µM (active) | < 0.01 µM (active) | 0.032 µM (active) | 0.0216 µM (active) | < 0.0117 µM (active) | 0.0698 µM (active) | 0.022 µM (active) |
